Source: US12653830B2, “Substituted imidazoquinoxaline compounds and uses thereof” (Impact Therapeutics (Shanghai), Inc, priority 2019, dated 2026)

Assays:
[1] = system: human breast cancer cell MDA-MB-468; assay: MTT proliferation assay, MDA-MB-468; type: cell-based; conditions: Homo sapiens, MDA-MB-468, 168 h, 7 days, single agent, read-out: IC50, inhibition of proliferation of MDA-MB-468
Method in brief: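 Cells seeded overnight, then treated 7 days at 37 °C, 5% CO2 in RPMI 1640 + 5% FBS with 1% final DMSO, medium changed on day 4. MTT (0.5 mg/mL) for 4 h, DMSO-solubilised, absorbance at 552 and 693 nm; viability relative to DMSO after background subtraction, IC50 from log-concentration curves.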

ATM kinase = biological target: T1, ATM kinase (Homo sapiens, UniProt Q13315); assay: In vitro ATM kinase assay (Cisbio HTRF, p53 substrate); type: biochemical; conditions: 30 μM ATP
T1 construct: purchased Eurofins 14-933
T1 sequence (Q13315 whole entry): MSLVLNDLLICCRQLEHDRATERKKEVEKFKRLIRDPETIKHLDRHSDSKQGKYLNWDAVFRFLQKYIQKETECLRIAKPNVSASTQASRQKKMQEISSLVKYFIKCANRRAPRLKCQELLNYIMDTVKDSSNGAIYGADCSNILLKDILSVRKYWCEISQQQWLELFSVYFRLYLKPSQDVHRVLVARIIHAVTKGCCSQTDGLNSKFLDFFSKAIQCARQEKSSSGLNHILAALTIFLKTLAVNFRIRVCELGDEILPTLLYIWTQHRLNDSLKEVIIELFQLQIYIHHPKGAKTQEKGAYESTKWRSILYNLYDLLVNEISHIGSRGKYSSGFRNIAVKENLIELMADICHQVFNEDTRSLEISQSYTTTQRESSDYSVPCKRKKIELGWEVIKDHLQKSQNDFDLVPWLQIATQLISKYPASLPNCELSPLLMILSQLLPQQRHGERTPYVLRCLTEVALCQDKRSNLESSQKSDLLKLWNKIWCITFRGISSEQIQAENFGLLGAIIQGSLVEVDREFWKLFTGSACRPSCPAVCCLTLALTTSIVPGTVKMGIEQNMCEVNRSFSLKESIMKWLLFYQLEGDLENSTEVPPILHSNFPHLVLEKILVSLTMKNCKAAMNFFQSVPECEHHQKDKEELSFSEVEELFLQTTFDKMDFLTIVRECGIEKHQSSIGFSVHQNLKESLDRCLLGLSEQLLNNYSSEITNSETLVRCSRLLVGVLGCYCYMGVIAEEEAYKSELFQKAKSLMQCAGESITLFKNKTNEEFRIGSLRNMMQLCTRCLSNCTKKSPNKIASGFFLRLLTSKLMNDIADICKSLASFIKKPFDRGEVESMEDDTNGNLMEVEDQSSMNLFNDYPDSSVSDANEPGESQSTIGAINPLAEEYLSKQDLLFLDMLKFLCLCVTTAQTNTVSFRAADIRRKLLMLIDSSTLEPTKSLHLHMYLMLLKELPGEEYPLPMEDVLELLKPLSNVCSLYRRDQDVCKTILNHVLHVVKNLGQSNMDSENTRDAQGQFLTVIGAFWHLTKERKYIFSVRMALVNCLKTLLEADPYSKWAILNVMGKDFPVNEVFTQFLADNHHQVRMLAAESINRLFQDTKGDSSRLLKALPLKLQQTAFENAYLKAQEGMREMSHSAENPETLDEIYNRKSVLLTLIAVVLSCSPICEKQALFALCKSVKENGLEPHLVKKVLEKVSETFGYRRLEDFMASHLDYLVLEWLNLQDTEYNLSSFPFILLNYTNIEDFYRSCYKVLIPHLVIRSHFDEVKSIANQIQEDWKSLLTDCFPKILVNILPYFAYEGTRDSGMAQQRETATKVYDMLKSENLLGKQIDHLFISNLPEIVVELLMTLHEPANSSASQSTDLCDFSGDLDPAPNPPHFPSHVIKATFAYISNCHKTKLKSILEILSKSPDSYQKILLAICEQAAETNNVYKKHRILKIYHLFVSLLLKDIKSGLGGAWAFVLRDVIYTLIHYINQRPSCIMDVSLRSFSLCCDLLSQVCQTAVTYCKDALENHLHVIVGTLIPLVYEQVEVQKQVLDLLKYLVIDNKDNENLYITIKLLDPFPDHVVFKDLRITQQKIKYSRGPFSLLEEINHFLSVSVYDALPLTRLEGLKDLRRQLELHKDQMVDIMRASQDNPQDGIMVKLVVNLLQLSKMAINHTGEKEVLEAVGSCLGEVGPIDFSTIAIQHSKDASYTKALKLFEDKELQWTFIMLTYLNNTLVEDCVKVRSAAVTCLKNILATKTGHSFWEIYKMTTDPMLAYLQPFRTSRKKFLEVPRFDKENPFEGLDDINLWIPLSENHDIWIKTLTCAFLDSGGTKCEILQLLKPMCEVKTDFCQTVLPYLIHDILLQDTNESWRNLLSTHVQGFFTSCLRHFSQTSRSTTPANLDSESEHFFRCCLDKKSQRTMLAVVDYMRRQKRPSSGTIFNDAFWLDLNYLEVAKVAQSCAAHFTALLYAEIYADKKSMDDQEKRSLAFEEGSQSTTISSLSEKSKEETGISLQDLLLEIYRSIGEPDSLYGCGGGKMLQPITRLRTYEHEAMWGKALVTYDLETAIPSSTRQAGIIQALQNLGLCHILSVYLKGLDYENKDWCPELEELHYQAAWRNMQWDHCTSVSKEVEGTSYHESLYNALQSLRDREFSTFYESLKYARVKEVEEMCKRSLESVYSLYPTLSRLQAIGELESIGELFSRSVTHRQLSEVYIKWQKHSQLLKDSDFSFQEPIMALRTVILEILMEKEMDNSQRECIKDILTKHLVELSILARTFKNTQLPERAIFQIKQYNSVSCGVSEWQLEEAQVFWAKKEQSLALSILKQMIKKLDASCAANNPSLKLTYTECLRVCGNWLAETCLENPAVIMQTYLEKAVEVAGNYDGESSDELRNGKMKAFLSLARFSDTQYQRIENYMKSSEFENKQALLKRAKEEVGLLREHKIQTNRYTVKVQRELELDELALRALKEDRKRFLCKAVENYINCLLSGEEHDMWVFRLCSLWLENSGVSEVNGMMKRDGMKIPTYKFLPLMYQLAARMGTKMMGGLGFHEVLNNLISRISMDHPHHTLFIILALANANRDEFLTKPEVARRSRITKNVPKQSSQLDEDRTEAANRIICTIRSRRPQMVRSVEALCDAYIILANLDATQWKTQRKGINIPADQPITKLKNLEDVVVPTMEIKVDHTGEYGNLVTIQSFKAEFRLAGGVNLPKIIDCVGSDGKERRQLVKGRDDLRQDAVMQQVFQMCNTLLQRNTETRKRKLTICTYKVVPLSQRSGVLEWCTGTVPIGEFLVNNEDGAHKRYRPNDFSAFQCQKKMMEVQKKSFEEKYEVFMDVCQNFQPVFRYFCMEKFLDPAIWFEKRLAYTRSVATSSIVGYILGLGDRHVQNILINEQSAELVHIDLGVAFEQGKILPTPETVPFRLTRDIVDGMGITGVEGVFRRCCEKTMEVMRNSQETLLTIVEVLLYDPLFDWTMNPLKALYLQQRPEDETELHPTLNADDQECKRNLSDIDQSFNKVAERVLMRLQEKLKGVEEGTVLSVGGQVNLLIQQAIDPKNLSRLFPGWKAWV

[2] = system: human colon cancer cell SW620; assay: MTT proliferation assay in combination with CPT-11, SW620; type: cell-based; conditions: Homo sapiens, SW-620, 120 h, medium containing 205 nM CPT-11, 5 days, read-out: IC50, inhibition of proliferation of SW620 combined with CPT-11
Method in brief: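 SW620 cells in RPMI 1640 + 10% FBS are seeded overnight, then given compound in fresh medium containing 205 nM CPT-11 (1% DMSO final) for 5 days at 37 °C, 5% CO2. Viability is read by MTT (0.5 mg/mL, 4 h) at 552/690 nm, normalised to background-corrected DMSO wells. IC50 is taken from viability versus log concentration.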

SMILES | IC50 [1] | IC50 (ATM kinase) | IC50 [2]
Cc1nc(N2C[C@@H](C)O[C@@H](C)C2)n2c1cnc1ccc(-c3ccc(N4CCC(N)CC4)nc3)cc12 [Example 48, 1-(5-(1-((2S,6R)-2,6-dimethylmorpholino)-3-methylimidazo[1,5-a]quinoxalin-8-yl)pyridin-2-yl)piperidin-4-amine] | 7.6 nM | 0.46 nM | 12.1 nM
CNC1CCN(c2ccc(-c3ccc4ncc5c(C)nc(N6C[C@@H](C)O[C@@H](C)C6)n5c4c3)cn2)CC1 [Example 49, 1-(5-(1-((2S,6R)-2,6-dimethylmorpholino)-3-methylimidazo[1,5-a]quinoxalin-8-yl)pyridin-2-yl)-N-methylpiperidin-4-amine] | 4.5 nM | 0.8 nM | 7.1 nM
CCNC1CCN(c2ccc(-c3ccc4ncc5c(C)nc(N6C[C@@H](C)O[C@@H](C)C6)n5c4c3)cn2)CC1 [Example 50, 1-(5-(1-((2S,6R)-2,6-dimethylmorpholino)-3-methylimidazo[1,5-a]quinoxalin-8-yl)pyridin-2-yl)-N-ethylpiperidin-4-amine] | 8.1 nM | 0.41 nM | 6.3 nM
Cc1nc(N2C[C@@H](C)O[C@@H](C)C2)n2c1cnc1ccc(-c3ccc(OCCCN4CCOCC4)nc3)cc12 [Example 58, (2S,6R)-2,6-dimethyl-4-(3-methyl-8-(6-(3-morpholinopropoxy)pyridin-3-yl)imidazo[1,5-a]quinoxalin-1-yl)morpholine] | 17.8 nM | 0.19 nM | 23.3 nM
Cc1nc(N2C[C@@H](C)O[C@@H](C)C2)n2c1cnc1ccc(-c3ccc(OCCCN4CCN(C)CC4)nc3)cc12 [Example 59, (2S,6R)-2,6-dimethyl-4-(3-methyl-8-(6-(3-(4-methylpiperazin-1-yl)propoxy)pyridin-3-yl)imidazo[1,5-a]quinoxalin-1-yl)morpholine] | 9.2 nM | 0.19 nM | 12 nM
